Laboratory results taken from patent publication US20110021505A1, “Use of sulfonyl-substituted 2-sulfonylaminobenzoic acid N-phenylamides in the treatment of pain” (SANOFI-AVENTIS DEUTSCHLAND GMBH, priority 2007, published 2011).

Structure (SMILES) | melting point
O=C(Nc1ccc(S(=O)(=O)N2CCSCC2)cc1)c1cc(Cl)ccc1NS(=O)(=O)c1ccc(Cl)cc1 [Example 15, 5-Chloro-2-(4-chloro-phenylsulfonylamino)-N-(4-(thiomorpholine-4-sulfonyl)-phenyl)-benzamide] | 246 °C
COc1cc(NS(=O)(=O)c2ccc(Cl)s2)c(C(=O)Nc2ccc(S(=O)(=O)N(C)Cc3cccnc3)cc2)cc1OC.Cl | 214 °C
O=C(Nc1ccc(S(=O)(=O)N2CCS(=O)(=O)CC2)cc1)c1cc(Cl)ccc1NS(=O)(=O)c1ccc(Cl)cc1 [Example 92, 5-Chloro-2-(4-chloro-phenylsulfonylamino)-N-(4-(1,1-dioxo-thiomorpholine-4-sulfonyl)-phenyl)-benzamide] | 182 °C
Cc1ccc(S(=O)(=O)Nc2ccc(Cl)cc2C(=O)Nc2ccc(S(=O)(=O)N3CCOCC3)cc2)cc1 [Example 57, 5-Chloro-N-(4-(morpholine-4-sulfonyl)-phenyl)-2-(4-methyl-phenylsulfonylamino)-benzamide] | 214 °C
